This experiment addresses T1, BRD4 proteins (Homo sapiens, UniProt O60885).
T1 construct: endogenous in cells; host or cells: MM.1S
As to the kind of experiment: Degradation of BRD4 protein in MM.1S cell lines (Western blot densitometry). The class given is cell-based. The conditions noted are these: MM.1S cells, 10 μM, 24 hours. The protocol: To confirm that the compounds (BRD4 degraders) of Preparation Examples I′ to IV′ reduce the amount of BRD4 proteins, experiments were performed using MM.1S cell lines, which are B cells derived from the blood of multiple myeloma patients.
Specifically, the MM.1S cells were cultured in RPMI-1640 medium supplemented with 10% fetal bovine serum and Penicillin/Streptomycin (100 U/mL), transferred to a 6-well plate, and after 24 hours, the BRD4 degraders were diluted in the culture medium and the cells were treated with 10 μM each. After treatment, the cells were incubated in a C02 incubator for 24 hours. Through protein immunoblotting (Western Blot), the degrading capacity of each compound against BRD4 proteins in cells was confirmed. After cell culture was completed according to the experimental conditions, the cells were collected and centrifuged at 1,800 rpm for 3 minutes. The cells in the precipitate were lysed with RIPA (25 mM Tris-HCl pH 7.6, 150 mM NaCl, 1% NP-40, 1% sodium deoxycholate, 0.1% SDS, 1× Protease Inhibitor Cocktail), 5× sample buffer was added, and then heated at 100° C. for 15 minutes. The prepared sample was electrophoresed with sodium dodecyl sulfate poly acrylamide gel electrophoresis (SDS-PAGE), and then the proteins in the gel were transferred to a PVDF membrane using Trans-Blot Turbo. The membrane was treated with a 5% bovine serum albumin (BSA) solution and blocked at room temperature for 2 hours, and then BRD4 and R-actin antibodies were diluted in the 5% BSA solution to react with the membrane at 4° C. overnight. After washed with PBST (0.5% Tween20) 5 times, horse radish peroxidase (HRP)-conjugated secondary antibodies were diluted in PBST to react at room temperature for 2 hours, and then washed again with a PBST solution 5 times. After enzyme-substrate reaction was carried out using a HRP substrate, a signal was measured with chemi-doc equipment, and the densitometry of a band corresponding to the BRD4 protein detected in the Preparation Example Compounds was quantitatively analyzed. The case when the degrading capacity of each BRD4 degrader was reduced by less than 40% is indicated as +, the case when the degrading capacity was reduced by 40% to 70% (exclusive of 70) is indicated as ++, the case when the degrading capacity was reduced by 70% or more is indicated as +++ in Tables 16 to 19 below. As shown in the following Tables, it was confirmed that the compounds of Preparation Examples I′ to IV′ according to the present invention have excellent degrading capacity.
On the technique in general: A western blot detects proteins with antibodies after separation by electrophoresis.

Consider `Cc1sc2c(c1C)C(c1ccc(Cl)cc1)=N[C@@H](CC(=O)Nc1ccc(C#CCN)c(COP(=O)(O)O)c1)c1nnc(C)n1-2` [3-8′, (S)-2-(3-aminoprop-1-yn-1-yl)-5-(2-(4-(4-chlorophenyl)-2,3,9-trimethyl-6H-thieno[3,2-f][1,2,4]triazolo[4,3-a][1,4]diazepin-6-yl)acetamido)benzyl dihydrogen phosphate trifluoroacetic acid], for which the “BRD4 degrading capacity (%)” value is listed as “+ (the degrading capacity of each BRD4 degrader was reduced by less than 40%)”.
Next, `Cc1sc2c(c1C)C(c1ccc(Cl)cc1)=N[C@@H](CC(=O)N1CCN(c3ccc(C#CCN)cc3)CC1)c1nnc(C)n1-2.Cl` [4-226′, (S)-1-(4-(4-(3-aminoprop-1-yn-1-yl)phenyl)piperazin-1-yl)-2-(4-(4-chlorophenyl)-2,3,9-trimethyl-6H-thieno[3,2-f][1,2,4]triazolo[4,3-a][1,4]diazepin-6-yl)ethan-1-one hydrochloride]: “+++ (the degrading capacity was reduced by 70% or more)”; `COC(=O)c1cc(NC(=O)C[C@@H]2N=C(c3ccc(Cl)cc3)c3c(sc(C)c3C)-n3c(C)nnc32)ccc1C#CCN.Cl` [3-1′, methyl (S)-2-(3-aminoprop-1-yn-1-yl)-5-(2-(4-(4-chlorophenyl)-2,3,9-trimethyl-6H-thieno[3,2-f][1,2,4]triazolo[4,3-a][1,4]diazepin-6-yl)acetamido)benzoate hydrochloride]: “+++ (the degrading capacity was reduced by 70% or more)”.
To `Cc1sc2c(c1C)C(c1ccc(Cl)cc1)=N[C@@H](CC(=O)NCCCC(=O)Nc1ccc(C(=O)OC(C)C)c(C#CCN)c1)c1nnc(C)n1-2.Cl` [5-2′, isopropyl (S)-2-(3-aminoprop-1-yn-1-yl)-4-(4-(2-(4-(4-chlorophenyl)-2,3,9-trimethyl-6H-thieno[3,2-f][1,2,4]triazolo[4,3-a][1,4]diazepin-6-yl)acetamido)butanamido)benzoate hydrochloride] belongs “++ (the degrading capacity was reduced by 40% to 70% (exclusive of 70))”; to `Cc1sc2c(c1C)C(c1ccc(Cl)cc1)=N[C@@H](CC(=O)NCCCCCCCC(=O)Nc1cccc(C#CCN)c1)c1nnc(C)n1-2.Cl` [5-107′, (S)—N-(3-(3-aminoprop-1-yn-1-yl)phenyl)-8-(2-(4-(4-chlorophenyl)-2,3,9-trimethyl-6H-thieno[3,2-f][1,2,4]triazolo[4,3-a][1,4]diazepin-6-yl)acetamido)octanamide hydrochloride], “++ (the degrading capacity was reduced by 40% to 70% (exclusive of 70))”.
On to `Cc1sc2c(c1C)C(c1ccc(Cl)cc1)=N[C@@H](CC(=O)NCCCC(=O)Nc1ccc(C#CCN)cc1)c1nnc(C)n1-2.Cl` [4-162′, (S)—N-(4-(3-aminoprop-1-yn-1-yl)phenyl)-4-(2-(4-(4-chlorophenyl)-2,3,9-trimethyl-6H-thieno[3,2-f][1,2,4]triazolo[4,3-a][1,4]diazepin-6-yl)acetamido)butanamide hydrochloride], for which the “BRD4 degrading capacity (%)” value is recorded as “+++ (the degrading capacity was reduced by 70% or more)”.
Regarding `COC(=O)c1ccc(C(=O)NC2CCN(C(=O)C[C@@H]3N=C(c4ccc(Cl)cc4)c4c(sc(C)c4C)-n4c(C)nnc43)CC2)cc1C#CCN.Cl` [5-22′, methyl (S)-2-(3-aminoprop-1-yn-1-yl)-4-((1-(2-(4-(4-chlorophenyl)-2,3,9-trimethyl-6H-thieno[3,2-f][1,2,4]triazolo[4,3-a][1,4]diazepin-6-yl)acetyl)piperidin-4-yl)carbamoyl)benzoate hydrochloride], the “BRD4 degrading capacity (%)” value is “+++ (the degrading capacity was reduced by 70% or more)”.
Next, `Cc1sc2c(c1C)C(c1ccc(Cl)cc1)=N[C@@H](CC(=O)Nc1ccc(C#CC(N)CO)cc1)c1nnc(C)n1-2.Cl` (stereo partly drawn) [3-49′, N-(4-(3-amino-4-hydroxybut-1-yn-1-yl)phenyl)-2-((S)-4-(4-chlorophenyl)-2,3,9-trimethyl-6H-thieno[3,2-f][1,2,4]triazolo[4,3-a][1,4]diazepin-6-yl)acetamide hydrochloride]: “++ (the degrading capacity was reduced by 40% to 70% (exclusive of 70))”; `Cc1sc2c(c1C)C(c1ccc(Cl)cc1)=N[C@@H](CC(=O)NCCCCC(=O)Nc1ccc(C#CCN)c(CO)c1)c1nnc(C)n1-2.Cl` [5-9′, (S)—N-(4-(3-aminoprop-1-yn-1-yl)-3-(hydroxymethyl)phenyl)-5-(2-(4-(4-chlorophenyl)-2,3,9-trimethyl-6H-thieno[3,2-f][1,2,4]triazolo[4,3-a][1,4]diazepin-6-yl)acetamido)pentanamide hydrochloride]: “++ (the degrading capacity was reduced by 40% to 70% (exclusive of 70))”; `COC(=O)c1ccc(NC(=O)C2CCN(C(=O)C[C@@H]3N=C(c4ccc(Cl)cc4)c4c(sc(C)c4C)-n4c(C)nnc43)CC2)cc1C#CCOS(N)(=O)=O` [5-158′, methyl (S)-4-(1-(2-(4-(4-chlorophenyl)-2,3,9-trimethyl-6H-thieno[3,2-f][1,2,4]triazolo[4,3-a][1,4]diazepin-6-yl)acetyl)piperidine-4-carboxamido)-2-(3-(sulfamoyloxy)prop-1-yn-1-yl)benzoate trifluoroacetic acid]: “+++ (the degrading capacity was reduced by 70% or more)”.
Next, `COC(=O)c1cc(N2CCN(CCCNC(=O)C[C@@H]3N=C(c4ccc(Cl)cc4)c4c(sc(C)c4C)-n4c(C)nnc43)CC2)ccc1C#CCN.Cl` [5-165′, methyl (S)-2-(3-aminoprop-1-yn-1-yl)-5-(4-(3-(2-(4-(4-chlorophenyl)-2,3,9-trimethyl-6H-thieno[3,2-f][1,2,4]triazolo[4,3-a][1,4]diazepin-6-yl)acetamido)propyl)piperazin-1-yl)benzoate hydrochloride]: “+++ (the degrading capacity was reduced by 70% or more)”.
Consider `Cc1sc2c(c1C)C(c1ccc(Cl)cc1)=N[C@@H](CC(=O)NCC#Cc1ccc(C#CCN)o1)c1nnc(C)n1-2.Cl` [4-1′, (S)—N-(3-(5-(3-aminoprop-1-yn-1-yl)furan-2-yl)prop-2-yn-1-yl)-2-(4-(4-chlorophenyl)-2,3,9-trimethyl-6H-thieno[3,2-f][1,2,4]triazolo[4,3-a][1,4]diazepin-6-yl)acetamide hydrochloride], for which the “BRD4 degrading capacity (%)” value is reported as “++ (the degrading capacity was reduced by 40% to 70% (exclusive of 70))”.
As for `Cc1sc2c(c1C)C(c1ccc(Cl)cc1)=N[C@@H](CC(=O)Nc1ccc(C#CC(N)COP(=O)(O)O)cc1)c1nnc(C)n1-2` (stereo partly drawn) [3-57′, 2-amino-4-(4-(2-((S)-4-(4-chlorophenyl)-2,3,9-trimethyl-6H-thieno[3,2-f][1,2,4]triazolo[4,3-a][1,4]diazepin-6-yl)acetamido)phenyl)but-3-yn-1-yl dihydrogen phosphate trifluoroacetic acid], the “BRD4 degrading capacity (%)” value is reported as “++ (the degrading capacity was reduced by 40% to 70% (exclusive of 70))”.
Next, `COC(=O)c1ccc(NC(=O)C2CCN(C(=O)C[C@@H]3N=C(c4ccc(Cl)cc4)c4c(sc(C)c4C)-n4c(C)nnc43)CC2)cc1C#CC1(N)CC1` [5-155′, methyl (S)-2-((1-aminocyclopropyl)ethynyl)-4-(1-(2-(4-(4-chlorophenyl)-2,3,9-trimethyl-6H-thieno[3,2-f][1,2,4]triazolo[4,3-a][1,4]diazepin-6-yl)acetyl)piperidine-4-carboxamido)benzoate trifluoroacetic acid]: “++ (the degrading capacity was reduced by 40% to 70% (exclusive of 70))”; `Cc1sc2c(c1C)C(c1ccc(Cl)cc1)=N[C@@H](CC(=O)NCCCCCCCCCNC(=O)c1ccc(C#CCN)o1)c1nnc(C)n1-2.Cl` [4-225′, (S)-5-(3-aminoprop-1-yn-1-yl)-N-(9-(2-(4-(4-chlorophenyl)-2,3,9-trimethyl-6H-thieno[3,2-f][1,2,4]triazolo[4,3-a][1,4]diazepin-6-yl)acetamido)nonyl)furan-2-carboxamide hydrochloride]: “+++ (the degrading capacity was reduced by 70% or more)”; `Cc1sc2c(c1C)C(c1ccc(Cl)cc1)=N[C@@H](CC(=O)Nc1cccc(C#CCN)c1)c1nnc(C)n1-2.Cl` [1-3′, (S)—N-(3-(3-aminoprop-1-yn-1-yl)phenyl)-2-(4-(4-chlorophenyl)-2,3,9-trimethyl-6H-thieno[3,2-f][1,2,4]triazolo[4,3-a][1,4]diazepin-6-yl)acetamide hydrochloride]: “++ (the degrading capacity was reduced by 40% to 70% (exclusive of 70))”.
